Data reported in US20130310347A1, “MULTI-MODALITY MOLECULAR IMAGING HIGH-THROUGHPUT ASSAY FOR IDENTIFYING HEAT SHOCK PROTEIN 90 (HSP90) INHIBITORS” (The Board of Trustees of the Leland Stanford Junior …, priority 2012, published 2013).

What was measured:
[1] = test system: endogenous Hsp90(α/β)/p23 interactions; experiment: Co-immunoprecipitation of Hsp90(α/β)/p23; format: cell-based, human; settings: 5 μM, 24 h, 293T cells
Protocol: FIG. 5B is a digital image of a western blot analysis illustrating the effects of compounds CP1, CP9 and CP18 on disruption of Hsp90α/p23 and Hsp90β/p23 as determined by co-immunoprecipitation using antibodies against p23 and probing with Hsp90α- and Hsp90β-specific antibodies. The blot was probed with antibodies against p23 to ensure similar immunoprecipitation efficiency. Cells treated with 2 μM of PU-H71 served as a positive control.
Cells treated with PU-H71 (2 μM) served as a positive control.
Cells treated with 2 μM of PU-H71 served as a positive control. Western blotting of Hsp70, phosphorylated and total Akt and co-immunoprecipitation of Hsp90(α/β)/p23 interactions was performed as described Inglese et al., (2006) Proc. Nat. Acad. Sci. U.S.A. 103: 11473-11478, incorporated herein by reference in its entirety. The expression of Raf-1 was determined using rabbit polyclonal antibodies against Raf-1 (0.5 μg/ml, Abcam).

[2] = test system: 1975 lung cancer, 2008 ovarian cancer and HT29 colon cancer cells; experiment: 3H-FDG cell uptake (glucose metabolism); format: cell-based; settings: 24 h post treatment
Protocol: FIG. 6B is a graph illustrating the effect of CP9 on glucose metabolism determined in 1975 lung cancer, 2008 ovarian cancer and HT29 colon cancer cells by ^3H-FDG cell uptake studies 24 h post treatment. Normal MEFs were used as a control. Results were expressed as mean counts/μg protein/initial dose±S.E.M. *, p<0.05 vs. carrier control treated cells.
Inhibition of glucose metabolism by CP9 in cell culture was monitored by cell uptake studies with ^3H-fluoro-deoxyglucose (^3H-FDG) as described in Dandekar et al. ((2007) J. Nucl. Med. 48: 602-607) as shown in FIG. 6B. PU-H71 was used as a positive control.
To determine the downstream effects of lead compounds on glucose metabolism, 1.5×10^5 293T, 1975 and 2008 and MEFs cells plated in 24-well plate for 24 h, prior to treatment with different concentrations of CP9 for 24 or 48 h and subsequent incubation with 1 μCi of ^3H-FDG in 500 μl of medium for 1 h at 37° C. Cells treated with 2.5 μM of PU-H71 served as a positive control. The total counts in each sample were normalized to that of the dose added to each well and to the amount of protein, and expressed as mean counts/dose/μg protein±S.E.M. Likewise, the effect of CP9 on cell proliferation was determined using 1 μCi of ^3H-FLT per well after 2 h of incubation at 37° C.

Hsp90α/p23 interactions = biological target: T1, Hsp90α/p23 interactions (Homo sapiens, UniProt P07900); experiment: RL/FL bioluminescence imaging of 293T xenografts in living mice; format: in vivo; settings: CP9 80 mg/kg i.p.
T1 construct: expressed in transfected cells; also with FL-eGFP reporter (293Tα-FG) and as xenografts in nude mice
Protocol: (§1) Maximum radiance (photons/sec/cm^2/sr) from RL signals was normalized to that of FL signals at each site and at each time point to account for the effect of CP9 on cell proliferation. The RL/FL ratios were normalized to that of time 0 h to monitor the individual change in Hsp90(α/β)/p23 interactions in each mouse over time. Results were expressed as mean±S.E.M for the control and treatment groups for Hsp90α/p23 (left panel) and Hsp90β/p23 interactions (right panel).
(§2) To monitor the inhibition of Hsp90(α/β)/p23 interactions by CP9 in living mice, a second reporter (FL-eGFP) was introduced into the 293T cells stably expressing Hsp90(α/β)/p23 split RL reporters (now referred as 293T(α/β)—FG cells). Although ^18F-FLT has also been used to monitor tumor cell proliferation in small animals by PET (Tseng et al., (2005) J. Nucl. Med. 46: 1851-1857), FL imaging was used because of the higher sensitivity and ease of performing sequentially with RL imaging for Hsp90(α/β)/p23 interactions. […] Baseline RL and FL signals in each implanted tumor were determined upon i.v. substrate injection.
(§3) Based on experience with the Hsp90 inhibitors 17-AAG and PU-H71, CP9 (80 mg/kg) (n=5) was tested in animal experiments by i.p. injection with four doses at […] post baseline imaging (FIG. 7A). An equal volume of DMSO was injected into the carrier control group (n=5, FIG. 7B). Mice treated with 75 mg/kg PU-H71 (n=2) served as positive controls. Mice were re-imaged for Hsp90(α/β)/p23 interactions and cell proliferation via RL (FIG. 5B, left panels) and FL (FIG. 5B, right panels) imaging at the time points indicated, respectively. To account for the effect of cell number on Hsp90(α/β)/p23 interactions, RL signals were normalized to FL signals for each tumor at each time point, prior to normalization to that of time 0 h.
(§4) Mice were gas anesthetized using isofluorane (2% in 100% oxygen, 1 L/min) during all injection and imaging procedures and kept at 37° C. Mice were imaged using a cooled CCD camera (IVIS 200, Caliper Life Sciences, Mountain View, Calif.). […] Baseline RL activities in the implanted tumors in living mice were determined by i.v. injection of 30 μg cltz (in 150 μl of 5% ethanol: 95% PBS) and image acquisition of 3 mins. After a 30 mins wait for RL signals to decay, FL activities were determined by i.v. injection of 163 μg of D-Luc in 100 μl PBS with image acquisition of 10 sequences for 15 sec each to obtain the peak max radiance. […] Maximum radiance of RL was divided by that of FL signals at each time point, prior to normalization to that of time 0 hr for each individual mouse, and expressed as average radiance±S.E.M for each treatment group.

Hsp90β/p23 interactions = biological target: T2, Hsp90β/p23 interactions (Homo sapiens, UniProt P08238); experiment: as above; format: in vivo; settings: CP9 80 mg/kg i.p., p>0.05
T2 construct: expressed in transfected cells; also with FL-eGFP reporter (293Tβ-FG) and as xenografts in nude mice
T2 sequence (P08238 whole entry): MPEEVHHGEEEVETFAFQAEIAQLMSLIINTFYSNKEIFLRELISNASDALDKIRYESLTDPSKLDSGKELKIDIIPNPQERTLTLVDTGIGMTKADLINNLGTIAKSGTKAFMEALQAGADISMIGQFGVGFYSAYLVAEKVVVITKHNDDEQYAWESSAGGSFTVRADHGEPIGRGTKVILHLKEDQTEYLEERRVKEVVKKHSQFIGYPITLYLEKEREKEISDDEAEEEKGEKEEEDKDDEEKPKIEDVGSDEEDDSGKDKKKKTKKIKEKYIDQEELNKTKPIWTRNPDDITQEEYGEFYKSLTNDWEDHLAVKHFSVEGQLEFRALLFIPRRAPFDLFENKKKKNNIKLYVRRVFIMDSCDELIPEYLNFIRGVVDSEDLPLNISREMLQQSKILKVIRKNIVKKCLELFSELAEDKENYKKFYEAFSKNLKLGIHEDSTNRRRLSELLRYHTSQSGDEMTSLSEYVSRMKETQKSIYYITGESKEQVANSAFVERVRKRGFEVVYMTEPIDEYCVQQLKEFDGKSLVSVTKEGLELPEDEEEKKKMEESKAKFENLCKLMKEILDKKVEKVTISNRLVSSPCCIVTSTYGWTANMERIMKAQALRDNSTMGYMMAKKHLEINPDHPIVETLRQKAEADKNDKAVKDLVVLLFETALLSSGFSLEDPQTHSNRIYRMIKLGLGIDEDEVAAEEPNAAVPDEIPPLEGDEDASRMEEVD
Protocol: as §1, §2, §3, §4

RL/FL ratio in Hsp90α/p23 xenografts, normalized to time 0 h (Hsp90α/p23 interactions; 14 h): 122±39%
RL/FL ratio in Hsp90α/p23 xenografts, normalized to time 0 h (Hsp90α/p23 interactions; 38 h, p<0.05 vs carrier control): 79±19%
RL/FL ratio in Hsp90β/p23 xenografts, normalized to time 0 h (Hsp90β/p23 interactions; 14 h): 58±18%
RL/FL ratio in Hsp90β/p23 xenografts, normalized to time 0 h (Hsp90β/p23 interactions; 38 h): 83±42%
Structure (SMILES): Cc1cc(NC(=O)CSc2nc(-c3cccs3)cc(C(F)(F)F)n2)no1 [CP9, N-(5-methylisoxazol-3-yl)-2-(4-(thiophen-2-yl)-6-(trifluoromethyl)pyrimidin-2-ylthio)acetamide]
disruption of endogenous Hsp90(α/β)/p23 interactions by co-immunoprecipitation [1]: disruption of endogenous Hsp90(α/β)/p23 interactions
3H-FDG uptake in the cancer cells [2]: decreased
